“Also recorded” adds a separate entry of the source. Where two headings read alike, the source gives them in different places.
Tests used:
[1] = Study B: drug interaction PK with rifampin; format: in vivo, human; details: for half-life: read-out: Apparent terminal t1/2, mean (SD) (converted)
Excerpt: Study B (rifampin) had two treatment periods. […] All treatments were received under fasted conditions.
Healthy adults aged 19-50 years for Study A and 18-45 years for Study B were eligible to participate. […] For study B, participants had to have a BMI between 18.0 and 30 kg/m^2. Exclusion criteria for both studies included hypersensitivity to any study drug; exposure to hepatitis B virus, hepatitis C virus, or HIV; or use of any drug or substance known to affect CYP enzymes or P-gp.

[2] = test system: BCRP and/or P-gp; assay: Predicted interaction with BCRP and/or P-gp inhibitors
[3] = test system: plasma protein; assay: Plasma protein binding in vitro; format: in vitro ADME
[4] = Long-term safety, open-label extension study; format: in vivo, human
Description: Long-term safety was assessed in 813 patients, dosing intermittently for up to 1 year in an open-label extension study. […] Of these 813 patients, 421 patients were exposed to 50 mg or 100 mg for at least 6 months, and 364 patients were exposed to these doses for at least one year, all of whom treated at least two migraine attacks per month, on average. […] The most common adverse reaction resulting in discontinuation in the long-term safety study was nausea.

[5] = target: T1, BCRP (Homo sapiens, UniProt Q9UNQ0); assay: BCRP transporter substrate in vitro; format: in vitro ADME
T1 sequence (Q9UNQ0 1-655): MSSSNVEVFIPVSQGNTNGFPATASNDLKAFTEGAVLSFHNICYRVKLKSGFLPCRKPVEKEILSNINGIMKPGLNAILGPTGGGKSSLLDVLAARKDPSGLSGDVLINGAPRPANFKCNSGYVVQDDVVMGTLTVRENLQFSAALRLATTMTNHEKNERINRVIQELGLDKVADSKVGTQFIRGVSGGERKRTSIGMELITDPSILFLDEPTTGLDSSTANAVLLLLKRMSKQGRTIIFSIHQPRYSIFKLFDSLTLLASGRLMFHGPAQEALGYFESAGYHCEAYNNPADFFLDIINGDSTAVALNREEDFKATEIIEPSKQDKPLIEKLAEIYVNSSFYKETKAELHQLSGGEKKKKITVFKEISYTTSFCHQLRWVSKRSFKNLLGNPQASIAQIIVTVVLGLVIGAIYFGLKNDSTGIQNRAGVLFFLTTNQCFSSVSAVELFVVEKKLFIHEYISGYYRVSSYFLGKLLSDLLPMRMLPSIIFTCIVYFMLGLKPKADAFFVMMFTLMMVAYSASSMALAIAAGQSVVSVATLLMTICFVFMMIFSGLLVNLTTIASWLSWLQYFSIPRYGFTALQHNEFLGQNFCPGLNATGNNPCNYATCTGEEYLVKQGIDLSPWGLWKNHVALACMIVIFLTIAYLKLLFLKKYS

[6] = Study A: safety; format: in vivo, human
Description: Study A (verapamil and ketoconazole) comprised 3 treatment periods. […] Ubrogepant was administered under fasted conditions.

[7] = Adverse reactions in Studies 1 and 2; format: in vivo, human
Excerpt: In two randomized, double-blind, placebo-controlled, Ph. […] Of the ubrogepant-treated patients in these two studies, approximately 89% were female, 82% were white, 15% were Black, and 17% were of Hispanic or Latino ethnicity. The mean age at study entry was 41 years (range of 18-75 years).

[8] = coadministered with rifampin 600 mg vs alone
[9] = ubrogepant 100 mg + rifampin 600 mg
[10] = ubrogepant 100 mg alone, listed as Ubrogepant
[11] = Studies 1 and 2, 50 mg (N = 954)
[12] = Studies 1 and 2, 100 mg (N = 485)

SMILES: C[C@@H]1[C@H](c2ccccc2)C[C@H](NC(=O)c2cnc3c(c2)C[C@@]2(C3)C(=O)Nc3ncccc32)C(=O)N1CC(F)(F)F [ubrogepant, (3′S)-N-((3S,5S,6R)-6-methyl-2-oxo-5-phenyl-1-(2,2,2-trifluoroethyl)piperidin-3-yl)-2′-oxo-1′,2′,5,7-etrahydrospiro[cyclopenta[b]pyridine-6,3′-pyrrolo[2,3-b]pyridine]-3-carboxamide]
- reduction in ubrogepant AUC0-t [1, 8]: 78%
- reduction in ubrogepant Cmax [1, 8]: 69%
- AUC(0-t) ([1]; human, plasma, oral, 100 mg, ubrogepant 100 mg alone, read-out: AUC0-t, mean (SD)): 1880 ng·h/mL
- AUC(0-inf) ([1]; human, plasma, oral, 100 mg, ubrogepant 100 mg alone, read-out: AUC0-∞, mean (SD)): 1910 ng·h/mL
- half-life ([1]; human, plasma, oral, 100 mg, ubrogepant 100 mg alone): 4.4 h
- Cmax ([1]; human, plasma, oral, 100 mg, ubrogepant 100 mg alone, read-out: Cmax, mean (SD)): 416 ng/mL
- AUC(0-t) ([1]; human, plasma, oral, 100 mg, ubrogepant 100 mg alone, read-out: Geometric LSM AUC0-t, Reference): 1720 ng·h/mL
- AUC(0-inf) ([1]; human, plasma, oral, 100 mg, ubrogepant 100 mg alone, read-out: Geometric LSM AUC0-∞, Reference): 1750 ng·h/mL
- Cmax ([1]; human, plasma, oral, 100 mg, ubrogepant 100 mg alone, read-out: Geometric LSM Cmax, Reference): 375 ng/mL
- Tmax ([1]; human, plasma, oral, 100 mg, read-out: Tmax, median (range)): 2 h
- Vd/F ([1]; human, plasma, oral, 100 mg, read-out: Vz/F): 390 ± 174 L
- AUC(0-t) ([1]; human, plasma, oral, rifampin 600 mg in combination with ubrogepant 100 mg, read-out: Geometric LSM AUC0-t, Test): 378 ng·h/mL
- AUC(0-inf) ([1]; human, plasma, oral, rifampin 600 mg in combination with ubrogepant 100 mg, read-out: Geometric LSM AUC0-∞, Test): 379 ng·h/mL
- Cmax ([1]; human, plasma, oral, rifampin 600 mg in combination with ubrogepant 100 mg, read-out: Geometric LSM Cmax, Test): 118 ng/mL
- AUC(0-t) ([1]; human, plasma, oral, ubrogepant 100 mg + rifampin 600 mg, read-out: AUC0-t, mean (SD)): 396 ng·h/mL
- AUC(0-inf) ([1]; human, plasma, oral, ubrogepant 100 mg + rifampin 600 mg, read-out: AUC0-∞, mean (SD)): 397 ng·h/mL
- half-life ([1]; human, plasma, oral, ubrogepant 100 mg + rifampin 600 mg): 3 h
- Cmax ([1]; human, plasma, oral, ubrogepant 100 mg + rifampin 600 mg, read-out: Cmax, mean (SD)): 136 ng/mL
- Apparent terminal t1/2, mean (SD) [1, 9]: 3.04 (0.64) h
- CL/F [1, 9]: 282.87 ± 103.74 L/h
- CL/F ([1]; ubrogepant 100 mg alone): 62.77 ± 28.33 L/h
- Tmax, median (range) ([1]; ubrogepant 100 mg alone): 2 h
- Apparent terminal t1/2, mean (SD) [1, 10]: 4.36 (0.75) h
- Tmax, median (range) [1, 10]: 2.00 (1.00-4.00) h
- exposure of ubrogepant on co-administration ([1]; with rifampin, a strong CYP3A4 inducer): significant reduction in ubrogepant exposure
- highest predicted potential increase in exposure [2]: ≤ 2 fold
- fraction unbound [3]: 0.13
- patients withdrawn because of an adverse reaction ([4]; intermittent dosing for up to 1 year, 50 mg or 100 mg): 2.5%
- most common adverse reaction resulting in discontinuation ([4]; long-term safety study): nausea
- substrate of BCRP transporter [5]: substrate
- elevations in serum transaminases or bilirubin ([6]; Study A): no participants experienced elevations in serum transaminases or bilirubin greater than or equal to 2-fold ULN
- total TEAEs reported ([6]; Study A, all treatment periods): 39 TEAEs
- safety and tolerability ([6]; single oral dose coadministered with multiple doses of verapamil or ketoconazole, healthy adults): safe and generally well tolerated; also recorded: safe and generally well-tolerated
- Dry Mouth [7, 11]: <1%
- Nausea [7, 11]: 2%
- Somnolence (includes sedation and fatigue) [7, 11]: 2%
- Dry Mouth [7, 12]: 2%
- Nausea [7, 12]: 4%
- Somnolence (includes sedation and fatigue) [7, 12]: 3%

— US20240180883A1, “TREATMENT OF MIGRAINE” (Allergan Pharmaceuticals International Limited, priority 2020, published 2024)
